Test results as given in ChEMBL document CHEMBL4616616, “Identification of a C3'-nitrile nucleoside analogue inhibitor of pancreatic cancer cell line growth” (Bioorg Med Chem Lett, 2020).
Activity calls are given as the source filed them. The rule behind the calls is not given here.

Legend:
BXPC-3 [1] = assay: Antiproliferative activity against human BxPC3 cells harboring wild type KRAS and TP53 mutation assessed as cell killing incubated for 96 hrs by cell-titer-Glo 2.0 assay relative to control; assay type: functional
Capan-2 [2] = assay: Antiproliferative activity against human Capan2 cells harboring TP53 and G12V KRAS mutations assessed as inhibition of cell growth at 25 uM incubated for 96 hrs by cell-titer-Glo 2.0 assay
BXPC-3 [3] = assay: Antiproliferative activity against human BxPC3 cells harboring wild type KRAS and TP53 mutation assessed as inhibition of cell growth at 25 uM incubated for 96 hrs by cell-titer-Glo 2.0 assay; assay type: functional, cell-based
Capan-2 [4] = assay: Antiproliferative activity against human Capan2 cells harboring TP53 and G12V KRAS mutations assessed as cell killing incubated for 96 hrs by cell-titer-Glo 2.0 assay relative to control
BXPC-3 [5] = assay: Antiproliferative activity against human BxPC3 cells harboring wild type KRAS and TP53 mutation assessed as inhibition of cell growth incubated for 96 hrs by cell-titer-Glo 2.0 assay; assay type: functional, cell-based; details: BXPC-3, 96 h
Capan-2 [6] = assay: Antiproliferative activity against human Capan2 cells harboring TP53 and G12V KRAS mutations assessed as inhibition of cell growth incubated for 96 hrs by cell-titer-Glo assay; details: Capan-2, 96 h
BXPC-3 [7] = assay: Antiproliferative activity against human BxPC3 cells harboring wild type KRAS and TP53 mutation assessed as maximal inhibition of cell growth at 2.5 uM incubated for 96 hrs by cell-titer-Glo assay; assay type: functional, cell-based
Capan-2 [8] = assay: Antiproliferative activity against human Capan2 cells harboring TP53 and G12V KRAS mutations assessed as inhibition of cell growth incubated for 96 hrs by cell-titer-Glo 2.0 assay relative to control

## C[C@]1(CC#N)[C@H](F)[C@H](n2cnc3c(NCc4ccccc4)nc(Cl)nc32)O[C@@H]1CO
BXPC-3 [1]
  Activity: 20%

## C[C@]1(CC#N)[C@H](F)[C@H](n2cnc3c(N)nc(Cl)nc32)O[C@@H]1CO
Capan-2 [2]
  inhibition: inactive
BXPC-3 [3]
  inhibition: inactive

## CC(C)OC(=O)[C@H](C)N[P@](=O)(OC[C@H]1O[C@@H](n2cnc3c(NCc4ccccc4)nc(Cl)nc32)[C@@H](F)[C@]1(C)CC#N)Oc1ccccc1
Capan-2 [4]
  Activity: 80%
BXPC-3 [5]
  EC50: 12 µM
BXPC-3 [1]
  Activity: 60%
Capan-2 [6]
  EC50: 7 µM

## Nc1ccn([C@@H]2O[C@H](CO)[C@@H](O)C2(F)F)c(=O)n1 [GEMCITABINE]
BXPC-3 [7]
  inhibition: Active
Capan-2 [8]
  Imax: 40%
